The experiment has as its system nude mice, HT29 intrarenal xenograft, tumor weight T/C. The experiment in a line: NCI In Vivo Anticancer Drug Screen. Data for tumor model HT29;CX-1 Human Adenocarcinoma (MER+) (intrarenal inoculation) in NU/NU Swiss (nude) mice. The conditions noted are these: endpoint: mean tumor weight change, higher = larger tumour. Here is the method:
The antitumor activity of compounds was measured in mice bearing transplantable tumors. Survival or tumor size were measured and the results are expressed as the measurement made in the treated group (T) divided by the measurement made in the vehicle treated control group (C). The tumor model used in this assay is HT29;CX-1 Human Adenocarcinoma (MER+) (intrarenal inoculation) in NU/NU Swiss (nude) mice

SMILES strings stand for the structures. Several values for one entry are separate records, joined by “and”; a condition that tells them apart may be missing. Equal entries are not always repeated. Inconclusive results are not listed.

In the case of `C[C@]12CC[C@H]3[C@@H](CCC4=C[C@@H](OC5OCC(OC6OC(CO)C(O)C(O)C6O)C(O)C5O)CC[C@@]43C=O)[C@@]1(O)CCC2C1=CC(=O)OC1` (some centres not stated), the T/C is, setting by setting: (dose: 3.75 mg/kg/injection, schedule: Q04DX004 (sc), vehicle: Klucel (hydroxypropylcellulose) (HPC)) 67 % of control; (dose: 7.5 mg/kg/injection, schedule: Q04DX004 (sc), vehicle: Klucel (hydroxypropylcellulose) (HPC)) 97 % of control; (dose: 15.0 mg/kg/injection, schedule: Q04DX004 (sc), vehicle: Klucel (hydroxypropylcellulose) (HPC)) 93 % of control; (dose: 30.0 mg/kg/injection, schedule: Q04DX004 (sc), vehicle: Klucel (hydroxypropylcellulose) (HPC)) 110 % of control.

On to `CC(C)NCC(O)COc1ccc(O)c(O)c1` (configuration not stated), for which the T/C runs as follows: (dose: 3.0 mg/kg/injection, schedule: Q04DX004 (sc), vehicle: saline) 107 % of control; (dose: 6.0 mg/kg/injection, schedule: Q04DX004 (sc), vehicle: saline) 103 % of control; (dose: 12.0 mg/kg/injection, schedule: Q04DX004 (sc), vehicle: saline) 164 % of control.

With `OCCN1CCN(CCCN2c3ccccc3Sc3ccc(C(F)(F)F)cc32)CC1`, the T/C reads like this: (dose: 1.25 mg/kg/injection, schedule: Q01DX010 (sc), vehicle: saline) 121 % of control; (dose: 2.5 mg/kg/injection, schedule: Q01DX010 (sc), vehicle: saline) 58 % of control; (dose: 5.0 mg/kg/injection, schedule: Q01DX010 (sc), vehicle: saline) 118 % of control; (dose: 10.0 mg/kg/injection, schedule: Q01DX010 (sc), vehicle: saline) 92 % of control.

As for `COC(=O)C12OCC34C(CC5C(C)C6=CC(=O)OC6=CC5(C)C3C(O)C1O)OC(=O)C(OC(C)=O)C24` (configuration not stated), the T/C by setting is: (dose: 1.25 mg/kg/injection, schedule: Q04DX004 (sc), vehicle: saline + alcohol) 115 % of control; (dose: 5.0 mg/kg/injection, schedule: Q04DX004 (sc), vehicle: saline + alcohol) 171 % of control; (dose: 10.0 mg/kg/injection, schedule: Q04DX004 (sc), vehicle: saline + alcohol) 165 % of control.

Turning to `CC(C#N)(C#N)N=Nc1ccc(Cl)cc1Cl`, the T/C by setting is: (dose: 200.0 mg/kg/injection, schedule: Q04DX004 (sc), vehicle: saline with Tween-80) 116 % of control; (dose: 1600.0 mg/kg/injection, schedule: Q04DX004 (sc), vehicle: saline with Tween-80) 106 % of control.

With `O=C1N[C@@H]([C@H]2CC[C@H](Cl)CN2)C(=O)N[C@H]1[C@H]1CC[C@H](Cl)CN1`, the T/C runs as follows: (dose: 0.16 mg/kg/injection, schedule: Q01DX010 (sc), vehicle: water) 65 % of control and 70 % of control and 74 % of control; (dose: 0.31 mg/kg/injection, schedule: Q01DX010 (sc), vehicle: water) 20 % of control.

Take `CC(=O)N(C)C`: the T/C by setting is: (dose: 1350.0 mg/kg/injection, schedule: Q04DX004 (sc), vehicle: saline) 112 % of control; (dose: 2700.0 mg/kg/injection, schedule: Q04DX004 (sc), vehicle: saline) 45 % of control.

For `C=C(NC(=O)C(=C)NC(=O)c1csc(C2=NC3c4csc(n4)C4NC(=O)c5csc(n5)C(C(C)(O)C(C)O)NC(=O)C5CSC(=N5)/C(=C/C)NC(=O)C(C(C)O)NC(=O)c5csc(n5)C3(CC2)NC(=O)C(C)NC(=O)C(=C)NC(=O)C(=C)NC(=O)C(C(C)C)NC2C=Cc3c(C(C)O)cc(nc3C2O)C(=O)OC4C)n1)C(N)=O` (configuration not stated), the T/C is, setting by setting: (dose: 125.0 mg/kg/injection, schedule: Q04DX004 (sc), vehicle: suspension in saline) 789 % of control; (dose: 250.0 mg/kg/injection, schedule: Q04DX004 (sc), vehicle: suspension in saline) 419 % of control; (dose: 500.0 mg/kg/injection, schedule: Q04DX004 (sc), vehicle: saline) 59 % of control; (dose: 750.0 mg/kg/injection, schedule: Q04DX004 (sc), vehicle: saline) 97 % of control; (dose: 750.0 mg/kg/injection, schedule: Q04DX004 (sc), vehicle: suspension in saline) 73 % of control; (dose: 1000.0 mg/kg/injection, schedule: Q04DX004 (sc), vehicle: saline) 65 % of control. Besides, the T/C reads like this: (dose: 1250.0 mg/kg/injection, schedule: Q04DX004 (sc), vehicle: saline) 91 % of control; (dose: 1250.0 mg/kg/injection, schedule: Q04DX004 (sc), vehicle: suspension in saline) 82 % of control.

Turning to `CN(CCN(C)C(=O)CCOS(C)(=O)=O)C(=O)CCOS(C)(=O)=O`, the T/C (dose: 75.0 mg/kg/injection, schedule: Q04DX004 (sc), vehicle: saline) was 64 % of control and the T/C (dose: 150.0 mg/kg/injection, schedule: Q04DX004 (sc), vehicle: saline) was 36 % of control.

Consider `CSC1SCC2C(=O)N(C)C(C(C)C)C(=O)OCC(NC(=O)c3cnc4ccccc4n3)C(=O)NC(C)C(=O)N(C)C1C(=O)N(C)C(C(C)C)C(=O)OCC(NC(=O)c1cnc3ccccc3n1)C(=O)NC(C)C(=O)N2C` (configuration not stated), for which the T/C (dose: 30.0 micrograms/kg/injection, schedule: Q01DX010 (sc), vehicle: suspension in saline) is 88 % of control; the T/C (dose: 60.0 micrograms/kg/injection, schedule: Q01DX010 (sc), vehicle: saline) was 49 % of control; the T/C (dose: 120.0 micrograms/kg/injection, schedule: Q01DX010 (sc), vehicle: saline) was 35 % of control; the T/C (dose: 240.0 micrograms/kg/injection, schedule: Q01DX010 (sc), vehicle: saline) is 12 % of control.

With `CC(C)(C)C1CCCCC1`, the T/C runs as follows: (dose: 300.0 mg/kg/injection, schedule: Q04DX004 (sc), vehicle: Klucel (hydroxypropylcellulose) (HPC)) 94 % of control; (dose: 600.0 mg/kg/injection, schedule: Q04DX004 (sc), vehicle: Klucel (hydroxypropylcellulose) (HPC)) 97 % of control; (dose: 1200.0 mg/kg/injection, schedule: Q04DX004 (sc), vehicle: Klucel (hydroxypropylcellulose) (HPC)) 56 % of control; (dose: 2400.0 mg/kg/injection, schedule: Q04DX004 (sc), vehicle: Klucel (hydroxypropylcellulose) (HPC)) 55 % of control.

Regarding `CCN(CC)CCNc1ccc(C)c2sc3ccccc3c(=O)c12`, the T/C (dose: 100.0 mg/kg/injection, schedule: Q01DX010 (sc), vehicle: saline) is 87 % of control.

With `C=CCc1cn(C2CC(O)C(CO)O2)c(=O)[nH]c1=O` (configuration not stated), the T/C runs as follows: (dose: 300.0 mg/kg/injection, schedule: Q04DX004 (sc), vehicle: saline) 71 % of control; (dose: 600.0 mg/kg/injection, schedule: Q04DX004 (sc), vehicle: saline) 99 % of control; (dose: 1200.0 mg/kg/injection, schedule: Q04DX004 (sc), vehicle: saline) 64 % of control; (dose: 2400.0 mg/kg/injection, schedule: Q04DX004 (sc), vehicle: saline) 71 % of control.

For `CC(C)NC(=O)OCc1c(COC(=O)NC(C)C)c(-c2ccc(Cl)c(Cl)c2)n2c1CCC2`, the T/C runs as follows: (dose: 25.0 mg/kg/injection, schedule: Q01DX010 (sc), vehicle: distilled water + Tween-80) 107 % of control; (dose: 50.0 mg/kg/injection, schedule: Q01DX010 (sc), vehicle: distilled water + Tween-80) 15 % of control; (dose: 200.0 mg/kg/injection, schedule: Q01DX010 (sc), vehicle: distilled water + Tween-80) 60 % of control and 78 % of control; (dose: 800.0 mg/kg/injection, schedule: Q01DX010 (sc), vehicle: distilled water + Tween-80) 44 % of control.

Source of the values: PubChem BioAssay AID206 (DTP/NCI, 2004).
